From patent US7387779B2, “Anti-angiogenic proteins and fragments and methods of use thereof” (Beth Israel Deaconess Medical Center, priority 1998, dated 2008)

Key:
[1] = test system: PC3 tumor xenografts; assay: PC3 human prostate tumor xenograft (Example 58); format: in vivo, nude NCRNU mice; settings: 5.0 mg/kg i.p. daily, 3 weeks
Experimental: Male nude NCRNU mice, 5-6 weeks old, weighing approximately 25 grams, 6 were implanted with 2×10^6 PC3 cells into the dorsal subcutis. When the tumors were 60 mm^3, the animals were pair-matched into treatment and control groups. Each group contained 6-7 tumored mice, each of which was ear-tagged and followed individually throughout the experiment. Initial doses of peptide or vehicle control were given on the day of pair-matching (Day 0), and were administered via intraperitoneal (i.p.) injection at doses indicated. Mice were weighed weekly, and tumor measurements were taken by calipers weekly. These tumor measurements were converted to tumor volume by a well-known formula, (V=W^2×L/2), and mean tumor volumes were plotted against time. Mice were euthenized at the end of the treatment period. Upon termination, the mice were weighed, sacrificed and their tumors were excised. The mean tumor weight per group was calculated, and the value of mean treated tumor volume or volume ratio/mean control tumor volume or volume ratio×100 was subtracted from 100% to give the tumor growth inhibition (TG1) for each group. All groups received injections I.P. daily, except for two T8-treated groups, which were treated twice per week and once a week, respectively.

[2] = test system: C-PAE cells; assay: Cell attachment assay; format: cell-based, bovine; settings: for attachment of endothelial cells onto vitronectin-coated plates in the presence of peptide: 5 μg/ml
Experimental: (§1) The attachment of HUVECs to Tumstatin-coated plates in the presence of integrin subunits α1 through α6, β1, and αvβ3 integrin blocking antibody was examined. This assay was performed according to the method of Senger et al. (Senger, D. R. et al, 1997, Proc. Natl. Acad. Sci. USA 94:13612-7), with minor modification. 96-well plates were coated with either human Tumstatin, mouse laminin-1, or human Type IV collagen (Collaborative Biomedical Prods., Bedford, Mass., USA) at a concentration of 10 μg/ml overnight at 37° C. Vitronectin (Collaborative Biomed. Prods.) at a concentration of 0.5 μg/ml was then used to coat the plates. The remaining protein binding sites were blocked with 100 mg/ml of BSA (Sigma Chemical Co., St. Louis, Mo., USA) in PBS for 2 hours. HUVEC cells were grown to subconfluence (70-80%) in EGM-2 medium, gently trypsinized and resuspended in serum-free medium (1.5×10^5 cells/ml). The cells were mixed with 10 μg/ml of either mouse IgG, (control) (Life Technologies/Gibco BRL, Gaithersberg, Md., USA) or antibody (mouse monoclonal antibody to the human β1 integrin (clone P4C10) (Life Technologies/Gibco BRL); monoclonal antibody to human integrins α1 through α.6 (CHEMICON Int'l, Temecula, Calif., USA); αvβ3 integrin (clone LM609) (CHEMICON Int'l) and incubated for 15 minutes at room temperature, with gentle agitation. One hundred microliters of the cell suspension was then added to each well and incubated for 45 minutes at 37° C. Unattached cells were removed by washing, and the number of attached cells were counted after staining with methylene blue. C-PAE cells were used in separate experiments, following the above procedure.
To determine the attachment of C-PAE cells to plates coated with the Tumstatin deletion mutants, the cell attachment assay was performed as described above (see, e.g., Example 28). Rabbit antibody raised against Tum-4 was prepared as previously described (Kalluri et al., 1997, J. Clin. Invest. 99:2470-8). Goat anti-rabbit IgG antibody conjugated with horseradish peroxidase was purchased from Sigma Chemical Company (St. Louis, Mo., USA). […] Plates coated with Tum-1 (FIG. 36A) were also treated with anti-Tum-4 antibody (1:200 dilution) to block the previously reported (Shahan et al, 1999, Cancer Res. 59:4584-90) αvβ3 binding site, as well as the αvβ5 binding site.
(§2) Cell Attachment Activity: Cell attachment using endothelial cells was performed as described above. HUVEC or C-PAE cells were incubated with monoclonal anti-human integrin antibodies, control mouse IgG (10 μg/ml), or synthetic peptide, plated onto pre-coated 96-well plates, and the number of cells attaching to the plates was determined using measurement of methylene blue staining at OD655. […] CNGRC peptide was used as a control.
(§3) The cell attachment assay was performed as described above.
Tumstatin produced in 293 human embryonic kidney cells was used to coat tissue culture plates. […] PBS and BSA served as positive and negative controls, respectively.

[3] = test system: C-PAE cells; assay: Endothelial cell proliferation, methylene blue staining; format: cell-based, bovine; settings: 10 μg/ml; 20% FCS
Experimental: A methylene blue staining test was also done. 3,100 cells were added to each well and treated as above, and cells were then counted using the method of Oliver et al. (Oliver, M. H. et al., 1989, J. Cell. Science 92:513-18). All wells were washed one time with […] of 1×PBS and the cells were fixed by adding […] of 10% formalin in neutral-buffered saline (Sigma Chemical Co., St. Louis, Mo., USA) for 30 minutes at room temperature. After formalin removal cells were stained with a solution of 1% methylene blue (Sigma Chemical Co.) in 0.01 M borate buffer (pH 8.5) for 30 minutes at room temperature. After removal of staining solution, the wells were washed 5 times with […] of 0.01 M borate buffer (pH 8.5). Methylene blue was extracted from the cells with […] of 0.1N HCi/ethanol (1:1 mixture) for 1 hour at room temperature. The amount of methylene blue staining was measured on a microplate reader (BioRad, Hercules, Calif., USA) using light absorbance at 655 nm wavelength.
In the methylene-blue staining method, 7000 cells were plated into each well of a 96-well plate, and treated as described above. Cells were then counted using the method of Oliver et al. (1989, J. Cell. Sci. 92:513-8). After 48 hours of treatment, all wells were washed with 100 μl of PBS, and the cells fixed with 10% formalin in neutral-buffered saline (Sigma Chemical Co., St. Louis, Mo., USA). The cells were then stained with 1% methylene blue (Sigma) in 0.01M borate buffer, pH 8.5. Wells were washed with 0.01M borate buffer, and the methylene blue extracted from the cells with 0.1N HCl/ethanol, and the absorbance measured in a microplate reader (Bio-Rad, Hercules, Calif., USA) at 655 nm. Polymyxin B (Sigma) at a final concentration of 5 μg/ml was used to inactivate endotoxin (Liu, S. et al., 1997, Clin. Biochem. 30:455-63).
Proliferation of endothelial cells (C-PAE cells) and WM-164 melanoma cells was assayed by methylene blue staining, as described above in Examples 25 and 34. The results are shown in FIGS. 33A and 33B, which are a pair of graphs showing the effect of increasing concentration (x-axis) of Tumstatin, Tum-1, Tum-2, Tum-3 and Tum-4 on the relative number (y-axis) of C-PAE cells (FIG. 33A) and WM-164 cells (FIG. 33B). […] Tum-4, however, did have anti-proliferative activity in this cell line. […] Only Tum-4 inhibited WM-164 melanoma cells.
For the proliferation assay, Canstatin, Can-1 and Can-2 soluble proteins (0.1-20.0 μg/ml) were added to the growth medium of proliferating C-PAE cells, which were stimulated with 10% FBS in DMEM, in addition to 5 ng/ml bFGF and 3 ng/ml VEGF. The results are shown in FIG. 40, which is a graph showing the effect of increasing concentrations of Canstatin (♦), Can-1 (▪) and Can-2 (▴) (x-axis) on the relative cell number (y-axis) of C-PAE cells. Each concentration of each protein was tested in quadruplicate. Bovine serum albumin (BSA) was used as a control treatment. Polymyxin B was used to control for endotoxin interference, and no differences were found between assays run with and without polymyxin B added to the medium. Cells were allowed to proliferate for 48 hours, and were then fixed, stained and the density read with a Bio-Rad plate reader (Bio-Rad, Hercules, Calif., USA). Canstatin and Can-1 both caused dose-dependent decreases in the percent cell number, and both reduced the number of cells by 80% at concentrations of 5 μg/ml and higher.
An endothelial cell proliferation assay was used to compare the activity of Tumstatin and some of the deletion mutants. Recombinant Tumstatin (28 kDa), Tumstatin-44-131 (12 kDa) and T3 peptide were used in a methylene blue proliferation assay in equimolar concentrations.

[4] = test system: C-PAE cells; assay: Cell cycle analysis (propidium iodide, flow cytometry); format: cell-based, bovine
Experimental: To further evaluate the mechanism of T3 peptide on endothelial cell proliferation, the effect of T3 peptide on cell cycle progression was analyzed. In the growth arrested and contact inhibited cells (0 hour), 4.1% of cells were in S phase. […] This was true even at a maximal dosage of 100 μg/ml. The effect of the T3 peptide was dose-dependent, however, with the percentage of cells in S phase at 21.4% at 10 μg/ml, and 20.5% at 25 μg/ml. The percentage of cells in G0/G1 phase was 88.3% at 0 hour, 53.4% for the bFGF control, and 57.6%, 57.6% and 71.0% for treatments with T1, T6 and T3 peptide, respectively. […] Apoptotic Activity: Peptides T2, T3, T4, T5 and T6 (10 μg/ml concentration) were tested for their effect of viability of C-PAE cells using the MTT assay, as described in Examples 32 and 36 above. The results are shown in FIG. 43D, which is a histogram showing cell viability as measured at OD595 (y-axis), and treatments with the synthetic peptides (x-axis). […] TNF-α (100 ng/ml) was used to serve as a positive control in inducing endothelial cell apoptosis.
The effect of Tumstatin-44-131 and Tum-5-125-C-A on the cell cycle were assayed similarly to Example 4 above. Briefly, C-PAE cells were growth arrested by contact inhibition for 48 hours. The cells, at 10^5 cells per well, were then harvested and plated into a 12-well plate coated with fibronectin in 5% FCS and either recombinant Tumstatin-44-131 or Tum-5-125-C-A. After 21 hours, the cells were harvested and fixed in 70% ice-cold ethanol. The fixed cells were rehydrated a room temperature for 30 minutes in PBS containing 2% FCS and 0.1% Tween-20, centrifuged and resuspended in 0.5 ml of the same buffer. RNase (5 μg/ml) digestion was done at 37° C. for one hour, followed by staining with propidium iodide (5 μg/ml). The cells were then counted using an EPICS XL-MCL flow cytometer (Beckman-Coulter Instruments, Fullerton, Calif., USA).

[5] = test system: HUVEC cells; assay: Cell adhesion assay with integrin blocking antibodies; format: cell-based, human; settings: label = plate coating; 10 μg/ml antibody
Experimental: as §1, §2, §3

In the case of “ANMSRNVFFDCTSFPVCQKFLNDTRNY (Scrambled peptide SP1) [reference compound]”, the “% Tumor growth inhibition” value [1] is reported as 31.7% and the “Final Tumor Weight (V/Vo) ± SEM” value ([1]; T7 vehicle 5.626 ± 0.38, T8 vehicle 6.278 ± 1.483) is reported as 4.284 ± 1.244.

“CDCRGDCFC (synthetic blocking peptide) [reference compound]” was tested, and the “attachment of endothelial cells onto vitronectin-coated plates in the presence of peptide” value [2] was “inhibited attachment”.

With “CNGRC (synthetic blocking peptide) [reference compound]” the “attachment of endothelial cells onto vitronectin-coated plates in the presence of peptide” value [2] was “did not show such inhibition”.

With “DVCNFASRNDYSYWLSTPAL (T4 (amino acids 83-102 of SEQ ID NO10))” the “inhibition of endothelial cell proliferation by synthetic peptides” value [3] was “no inhibitory activity”.

With “NQRAHGQDLGTLGSCLQRFT (T2 (amino acids 53-72 of SEQ ID NO10))” the “inhibition of endothelial cell proliferation by synthetic peptides” value [3] was “nor did it inhibit endothelial cell proliferation”.

With “RALEPYISRCTVCEGPAIA (T6 (amino acids 113-131 of SEQ ID NO10))” the “percentage of cells in S phase” value ([4]; bFGF 24 hours (control 22.1%), T1 or T6, maximal dosage of 100 μg/ml) was 21.2%, the “percentage of cells in G0/G1 phase” value ([4]; bFGF control 53.4%) was 57.6% and the “binding to vitronectin-coated plates (2.5 μg/ml) in the presence of peptide” value ([2]; 0.1, 1.0, 10.0 μg/ml peptide) was “did not inhibit attachment”.

With “laminin-1: mouse laminin-1, control plate coating [reference compound]” the “inhibition of HUVEC attachment to coated plates by α5 antibody” value [5] was 50% and the “inhibition of HUVEC attachment to coated plates by α6 antibody” value [5] was 89%.

B1: vitronectin: control plate coating (protein)
chain: DQESCKGRCTEGFNVDKKCQCDELCSYYQSCCTDYTAECKPQVTRGDVFTMPEDEYTVYDDGEEKNNATVHEQVGGPSLTSDLQAQSKGNPEQTPVLKPEEEAPAPEVGASKPEGIDSRPETLHPGRPQPPAEEELCSGKPFDAFTDLKNGSLFAFRGQYCYELDEKAVRPGYPKLIRDVWGIEGPIDAAFTRINCQGKTYLFKGSQYWRFEDGVLDPDYPRNISDGFDGIPDNVDAALALPAHSYSGRERVYFFKGKQYWEYQFQHQPSQEECEGSSLSAVFEHFAMMQRDSWEDIFELLFWGRTSAGTRQPQFISRDWHGVPGQVDAAMAGRIYISGMAPRPSLAKKQRFRHRNRKGYRSQRGHSRGRNQNSRRPSRATWLSLFSSEESNLGANNYDDYRMDWLVPATCEPIQSVFFFSGDKYYRVNLRTRRVDTVDPPYPRSIAQYWLGCPAPGHL
For B1, the “inhibition of HUVEC attachment to coated plates by αvβ3 antibody” value [5] was 61%.

B2: Tum-5: residues 54 to 132 of Tumstatin (SEQ ID NO:26) (protein)
chain: QRAHGQDLGTLGSCLQRFTTMPFLFCNVNDVCNFASRNDYSYWLSTPALMPMNMAPITGRALEPYISRCTVCEGPAIAI
modifications: Tum-5 (amino acids 54-132 of SEQ ID NO10)
In the case of B2, the “attachment to coated plates in the presence of RGD peptide ([…])” value ([2]; label = plate coating) is reported as “not inhibited” and the “inhibition of HUVEC attachment to coated plates by αvβ3 antibody” value [5] is reported as “significantly inhibited”.
